Experimental data: the supplement of paper PMC11061612

Legend:
[1] = tested on: PC-3 (Prostate Carcinoma); test: combination Emax (second highest fraction inhibited in the dose matrix, 72 h); higher = more inhibition; extreme values may be limits of the assay
In short: (§1)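 After 24 hours at 37°C and 5% CO2 in 1536-well plates, cells in DMEM/F12 or RPMI plus 10% FBS received two-drug dose matrices for 72 hours. Viability came from CellTiter-Glo 2.0 luminescence and was scaled as inhibition, anchored at 0 by vehicle wells and at 1 by blank wells. Combination Emax is taken as the second-highest inhibition in the matrix, and Bliss excess as the observed combination effect less EA + EB − EA·EB, with EA and EB the single-agent effects.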

[2] = tested on: H9 (T-Cell Non-Hodgkin's Lymphoma); test: Bliss excess, mean over the matrix (fraction); higher = more synergy
In short: as §1

[3] = tested on: SU-DHL-5 (B-Cell Non-Hodgkin's Lymphoma); test: as above
In short: as §1

[4] = tested on: HCC1187 (Breast Carcinoma); test: as above
In short: as §1

[5] = tested on: NCI-H929 (Plasma Cell Myeloma); test: as above
In short: as §1

[6] = tested on: PC-3 (Prostate Carcinoma); test: as above
In short: as §1

RD (Rhabdomyosarcoma) = test: as above
In short: as §1

NCI-H2731 (Mesothelioma) = test: as above
In short: as §1

[7] = tested on: CHSA8926 (Chondrosarcoma); test: as above
In short: as §1

[8] = tested on: KU812 (Chronic Myelogenous Leukemia); test: as above
In short: as §1

[9] = tested on: KY821 (Acute Myeloid Leukemia); test: as above
In short: as §1

SJSA-1 (Osteosarcoma) = test: as above
In short: as §1

[10] = tested on: MOG-G-CCM (Low Grade Glioma); test: as above
In short: as §1

[11] = tested on: JHH-4 (Hepatocellular Carcinoma); test: as above
In short: as §1

[12] = tested on: NCI-H3122 (Lung Adenocarcinoma); test: as above
In short: as §1

[13] = tested on: NCI-H661 (Non-Small Cell Lung Carcinoma); test: as above
In short: as §1

[14] = tested on: IM-95 (Gastric Carcinoma); test: as above
In short: as §1

[15] = tested on: SK-GT-4 (Esophageal Adenocarcinoma); test: as above
In short: as §1

[16] = tested on: NCI-H520 (Squamous Cell Lung Carcinoma); test: as above
In short: as §1

[17] = tested on: T-T (Esophageal Squamous Cell Carcinoma); test: as above
In short: as §1
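Wherever Bliss excess, mean over the matrix is given: after 72 h of two-drug dosing.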

| Structure (SMILES) | combination Emax [1] | Bliss excess [2] | Bliss excess [3] | Bliss excess [4] | Bliss excess [5] | Bliss excess [6] | Bliss excess (RD (Rhabdomyosarcoma)) | Bliss excess (NCI-H2731 (Mesothelioma)) | Bliss excess [7] | Bliss excess [8] | Bliss excess [9] | Bliss excess (SJSA-1 (Osteosarcoma)) | Bliss excess [10] | Bliss excess [11] | Bliss excess [12] | Bliss excess [13] | Bliss excess [14] | Bliss excess [15] | Bliss excess [16] | Bliss excess [17] |
| --- | --- | --- | --- | --- | --- | --- | --- | --- | --- | --- | --- | --- | --- | --- | --- | --- | --- | --- | --- | --- |
| COc1cc2ncnc(Nc3ccc(F)c(Cl)c3)c2cc1OCCCN1CCOCC1 [Gefitinib] + CC(C)n1c(=O)n(C)c2cnc3cc(F)c(-c4ccc(OCCCN5CCCCC5)nc4)cc3c21 [AZD1390] (first compound max 10 µM, 7x7, partner max 0.3 µM) | 0.0447 | -0.0723 | -0.0317 | -0.04 | -0.0092 | -0.0643 | -0.0699 | -0.0434 | -0.113 | -0.0436 | -0.0553 | -0.0562 | -0.0271 | -0.0751 | -0.0775 | -0.097 | -0.0527 | -0.0846 | -0.0477 | -0.0411 |
| COc1cc2c(cc1OCCCCCOc1cc3c(cc1OC)C(=O)N1C=C(C)C[C@H]1C=N3)N=C[C@@H]1CC(C)=CN1C2=O [SG3199] + O=C(c1cc(Cc2n[nH]c(=O)c3ccccc23)ccc1F)N1CCN(C(=O)C2CC2)CC1 [Olaparib] (first compound max 0.001 µM, 7x7, partner max 10 µM) | 0.159 | -0.0205 | -0.027 | -0.006 | -0.0333 | -0.0417 | -0.0453 | -0.0505 | -0.0566 | -0.0288 | -0.0244 | -0.0252 | -0.0387 | -0.0327 | -0.0385 | -0.0432 | -0.0392 | -0.0661 | -0.0503 | -0.0418 |
| NC1(C(=O)N[C@@H](CCO)c2ccc(Cl)cc2)CCN(c2ncnc3[nH]ccc23)CC1 [Capivasertib] + CC(C)n1c(=O)n(C)c2cnc3cc(F)c(-c4ccc(OCCCN5CCCCC5)nc4)cc3c21 [AZD1390] (first compound max 10 µM, 7x7, partner max 0.3 µM) | 0.322 | -0.0341 | -0.0114 | -0.0424 | -0.0187 | -0.0345 | -0.0146 | -0.0169 | -0.111 | -0.0037 | -0.021 | -0.0843 | -0.0302 | -0.0504 | -0.0304 | -0.0692 | -0.0656 | -0.0586 | -0.0559 | 0.0071 |
| CC(=O)c1c(C)c2cnc(Nc3ccc(N4CCNCC4)cn3)nc2n(C2CCCC2)c1=O [Palbociclib] + Cc1c2c(nn1C)CSCc1cc(n(C)n1)CSc1cc(c3ccccc3c1)OCCCc1c(C(=O)O)n(C)c3c-2c(Cl)ccc13 [AZD5991] (first compound max 10 µM, 7x7, partner max 1 µM) | 0.169 | -0.0795 | -0.0071 | 0.0023 | 0.0099 | -0.0501 | 0.0077 | -0.0484 | -0.0807 | -0.0351 | -0.0372 | -0.0426 | -0.0595 | -0.0518 | -0.0217 | -0.0443 | -0.114 | -0.0645 | 0.0024 | 0.0028 |
| CCN(CCO)CCCOc1ccc2c(Nc3cc(CC(=O)Nc4cccc(F)c4)[nH]n3)ncnc2c1 [AZD2811] + C=CCn1c(=O)c2cnc(Nc3ccc(N4CCN(C)CC4)cc3)nc2n1-c1cccc(C(C)(C)O)n1 [AZD1775] (first compound max 1 µM, partner max 1 µM) | 0.237 | 0.0252 | -0.0309 | -0.0086 | -0.0671 | -0.0117 | -0.0222 | 0.0089 | 0.0032 | -0.034 | 0.0868 | -0.0109 | -0.0178 | 0.0015 | -0.0512 | -0.0029 | 0.0486 | -0.0545 | -0.108 | -0.037 |
| CC1(C)CCC(CN2CCN(c3ccc(C(=O)NS(=O)(=O)c4ccc(NCC5CCOCC5)c([N+](=O)[O-])c4)c(Oc4cnc5[nH]ccc5c4)c3)CC2)=C(c2ccc(Cl)cc2)C1 [Venetoclax] + Cn1cnc2c(F)c(Nc3ccc(Br)cc3Cl)c(C(=O)NOCCO)cc21 [Selumetinib] (first compound max 1 µM, 7x7, partner max 3 µM) | 0.152 | 0.0054 | 0.0355 | -0.0161 | 0.027 | -0.0484 | -0.0425 | -0.0525 | -0.0455 | -0.0125 | 0.0329 | -0.0431 | -0.0697 | -0.0402 | -0.0309 | -0.0243 | -0.0187 | -0.0512 | -0.0351 | 0.009 |
| CN(C)CCCOc1ccc(-c2ccc3ncc4c(c3c2)n(C2CCOCC2)c(=O)n4C)cn1 [AZD0156] + C[C@@H]1COCCN1C2=NC(=NC(=C2)C3(CC3)[S@](=N)(=O)C)C4=C5C=CNC5=NC=C4 [AZD6738] (first compound max 1 µM, 7x7, partner max 10 µM) | 0.484 | 0.0525 | 0.0265 | 0.0161 | -0.0182 | -0.0168 | -0.0333 | -0.0532 | -0.0328 | -0.0299 | 0.0228 | -0.0266 | -0.0593 | -0.0317 | 0.0218 | 0.0059 | -0.0126 | -0.0006 | -0.0064 | -0.014 |
| Cc1c2c(nn1C)CSCc1cc(n(C)n1)CSc1cc(c3ccccc3c1)OCCCc1c(C(=O)O)n(C)c3c-2c(Cl)ccc13 [AZD5991] + C[C@@H]1COCCN1C2=NC(=NC(=C2)C3(CC3)[S@](=N)(=O)C)C4=C5C=CNC5=NC=C4 [AZD6738] (first compound max 1 µM, 7x7, partner max 10 µM) | 0.482 | 0.0395 | -0.0059 | 0.0756 | -0.0296 | 0.035 | 0.0482 | -0.0074 | -0.0081 | 0.0296 | -0.0356 | 0.0711 | -0.0252 | 0.0496 | 0.056 | 0.0528 | -0.0412 | -0.0038 | -0.0091 | 0.0461 |
| COc1cccc(OCCCN)c1-c1cc(Nc2cnc(C#N)cn2)n[nH]1 [Prexasertib] + Cc1cc2ncnn2cc1Nc1ncc2c(n1)n(C1CCOCC1)c(=O)n2C [AZD7648] (first compound max 1 µM, 7x7, partner max 10 µM) | 0.358 | 0.0256 | -0.0314 | 0.0307 | -0.0864 | -0.036 | -0.0283 | -0.0001 | -0.0143 | -0.0891 | 0.0276 | -0.0326 | -0.0037 | -0.0281 | 0.0055 | -0.0543 | -0.0163 | -0.088 | 0.0278 | 0.0364 |
| Cc1c2c(nn1C)CSCc1cc(n(C)n1)CSc1cc(c3ccccc3c1)OCCCc1c(C(=O)O)n(C)c3c-2c(Cl)ccc13 [AZD5991] + C1CN(CCC1(C(=O)N[C@@H](CCO)C2=CC=C(C=C2)Cl)N)C3=NC=NC4=C3C=CN4 [Capivasertib] (first compound max 1 µM, 7x7, partner max 3 µM) | 0.287 | -0.0514 | 0.0095 | -0.0023 | -0.0168 | -0.0404 | 0.0465 | -0.0722 | 0.0131 | -0.0011 | -0.0471 | -0.0248 | -0.0178 | 0.0018 | 0.0144 | 0.0375 | -0.0384 | -0.0213 | -0.0548 | -0.0068 |
| COc1cccc(OCCCN)c1-c1cc(Nc2cnc(C#N)cn2)n[nH]1 [Prexasertib] + CN(C)CCCOc1ccc(-c2ccc3ncc4c(c3c2)n(C2CCOCC2)c(=O)n4C)cn1 [AZD0156] (first compound max 1 µM, 7x7, partner max 1 µM) | 0.272 | 0.0022 | -0.0089 | -0.0016 | -0.0523 | -0.0352 | -0.0008 | -0.012 | -0.039 | -0.061 | -0.0228 | -0.0246 | -0.0184 | -0.0346 | 0.0204 | -0.0451 | 0.0384 | -0.0116 | -0.0486 | 0.0061 |
| CN(CCO)CC[C@H](CSc1ccccc1)Nc1ccc(S(=O)(=O)NC(=O)c2ccc(N3CCC([C@@H](O)c4ccccc4-c4ccc(Cl)cc4)CC3)cc2)cc1S(=O)(=O)C(F)(F)F [AZD4320] + Cc1cc2ncnn2cc1Nc1ncc2c(n1)n(C1CCOCC1)c(=O)n2C [AZD7648] (first compound max 1 µM, 7x7, partner max 10 µM) | 0.213 | 0.0046 | -0.0099 | -0.025 | 0.0134 | -0.0432 | -0.0189 | -0.0424 | 0.0101 | – | 0.0393 | -0.0406 | -0.0387 | -0.0356 | -0.0676 | -0.0289 | -0.0645 | -0.0413 | -0.0691 | -0.0069 |
